Non-standard residues stand in square brackets, D forms with d. Residues, ends and D or L forms follow the SMILES beside them. *: point of attachment. Octanoyl = CCCCCCCC(=O)*; pHOPA = not defined here; Ac5c = NC1(C(=O)O)CCCC1; Butyryl = CCCC(=O)*
Tests used:
[1] = tested on: MCF7 (breast); test: In vitro cytotoxic activity, MTT assay, 72 hours; type: cell-based, human; settings: MCF-7, 100 pM
Method: (§1) In vitro Cytotoxic Activity of the Novel Synthesized Peptide Analogs
(§2) The cytotoxic activity of synthesized peptides was tested on six human tumor cell lines namely MCF7 (breast), U373 (glioblastoma), PTC, (colon), L132 (lung), Su.86.86 (pancreas), and KB (oral). The tumor cells were collected at exponential growth phase and resuspended in medium (1.5×10^6 cells/ml in RPMI 1640 containing 10% FBS). 150 μL of medium was added to the wells of a 96-well tissue culture plate (Nunc, Denmark) followed by 30 μl of cell suspension. The plate was left in an incubator (37° C., 5% CO2) overnight. 20 μl of the peptide (100 pM to 10 μM concentration) was added to marked wells of the 96-well plate. Each concentration was plated in triplicate. 20 μl of medium alone was added to control wells while wells without cells served as blanks. A total volume of 200 μL was ensured in each well and plate was left in incubator (37° C., 5% CO2). After 72 hours of incubation an MTT assay was performed and percentage cytotoxicity was calculated with respect to control cells.

[2] = tested on: PTC (colon); test: In vitro cytotoxic activity, MTT assay, 72 hours; type: cell-based, human
Method: as §1, §2

[3] = tested on: Su.86.86 (pancreas); test: In vitro cytotoxic activity, MTT assay, 72 hours; type: cell-based, human; settings: Su8686, 100 pM
Method: as §1, §2

[4] = tested on: human colon adenocarcinoma (PTC) xenografts; test: In vivo anti tumor activity on PTC tumor xenografts; set-up: species or system Balb/c athymic nude mice; settings: 4.25 μg intravenously twice a day; for Tumor volumes, Average: group average
Method: In vivo Anti Tumor Activity of Substance P Analogs on PCT Tumor Xenografts Protocol The anti tumor activity of substance P analogs was studied in human colon adenocarcinoma (PTC) xenografts in nude mice. PTC tumor xenografts were grown in Balb/c athymic nude mice by subcutaneous inoculation of a single cell suspension of PTC cells (15×10^6 cells/100 μL). The tumor bearing animals were divided into 4 groups of three animals each including one group comprising untreated control animals. Treatment with Substance P Receptor Antagonists was initiated when the average tumor volumes, as measured using a vernier caliper, were between 400-800 mm^3. SEQ ID NO:5, SEQ ID NO:7 and SEQ ID NO:8 peptides were prepared at a concentration of 42.5 μg/ml and intravenously administered to the assigned group of tumor bearing animals at a dose of 4.25 μg/100 μL twice a day so that the total dose of 8.5 μg was administered to each animal. The treatment was continued for a period of 10 days. The antitumor activity of the compounds was monitored by measuring 15 tumor volumes every fourth day using the formula W*W*L*0.4 (W=smaller diameter, L=larger diameter). The percentage inhibition of tumor growth was calculated using. the formula (1−tumor volume-treated/ tumor volume-control)×100.

[5] = tested on: KB (oral); test: In vitro cytotoxic activity, MTT assay, 72 hours; type: cell-based, human; settings: 100 pM
Method: as §1, §2

[6] = tested on: L132 (lung); test: In vitro cytotoxic activity, MTT assay, 72 hours; type: cell-based, human
Method: as §1, §2

[7] = tested on: SCLC cells; settings: SCLC proliferation; read-out: IC50, inhibition of SCLC proliferation; cited from earlier work
[8] = tested on: Swiss 3T3 cells; settings: cited from earlier work
[9] = tested on: SCLC xenografts; settings: cited from earlier work
[10] = tested on: H-510 SCLC cells; settings: liquid culture and semi-solid media, read-out: IC50, inhibition of proliferation; cited from earlier work
[11] = tested on: H-69 SCLC cells; settings: liquid culture and semi-solid media, read-out: IC50, inhibition of proliferation; cited from earlier work
[12] = tested on: H69 SCLC cells; settings: cited from earlier work
[13] = tested on: H69 SCLC cells xenografts; settings: xenografts in vivo in nude mice; cited from earlier work

## CC(C)C[C@H](NC(=O)[C@@H](Cc1c[nH]c2ccccc12)NC(=O)[C@H](Cc1ccccc1)NC(=O)[C@@H](Cc1c[nH]c2ccccc12)NC(=O)[C@H](CCC(N)=O)NC(=O)[C@@H](Cc1ccccc1)NC(=O)[C@@H]1CCCN1C(=O)[C@H](CCCCN)NC(=O)[C@@H]1CCCN1C(=O)[C@H](N)CCCNC(=N)N)C(=O)NC1(C(N)=O)CCCC1 [SEQ ID NO: 5, D-Arg-Pro-Lys-Pro-D-Phe-Gln-D-Trp-Phe-D-Trp-Leu-Ac5c-NH2] (H-[dR]PKP[dF]Q[dW]F[dW]L[Ac5c]-NH2; N-terminus assumed)
[1]
  Percentage cytotoxicity: Nil
[2]; 100 pM
  Percentage cytotoxicity: Nil
[2]; 1 nM
  Percentage cytotoxicity: 3.1 ± 0.5%
[3]
  Percentage cytotoxicity: Nil
[4]; Day 6
  Tumor volumes, animal I: 307.8 mm^3
  Tumor volumes, animal II: 520 mm^3
  Tumor volumes, animal III: 687.7 mm^3
  Tumor volumes, Average: 505.1 mm^3
[4]; Day 8
  Tumor volumes, animal I: 748.8 mm^3
  Tumor volumes, animal II: 1149.2 mm^3
  Tumor volumes, animal III: 1411.2 mm^3
  Tumor volumes, Average: 1103.0 mm^3
[4]; Day 12
  Tumor volumes, animal I: 2049 mm^3
  Tumor volumes, animal II: 3080.3 mm^3
  Tumor volumes, animal III: 3840.0 mm^3
  Tumor volumes, Average: 2989.7 mm^3
[4]; Day 15
  Tumor volumes, animal I: 3310 mm^3
  Tumor volumes, animal II: 3360 mm^3
  Tumor volumes, animal III: 4480.0 mm^3
  Tumor volumes, Average: 3716.6 mm^3
[4]; Day 19
  Tumor volumes, animal I: 3582 mm^3
  Tumor volumes, animal II: 1465.6 mm^3
  Tumor volumes, animal III: 3499.2 mm^3
  Tumor volumes, Average: 2848.9 mm^3
[4]; Day 22
  Tumor volumes, animal II: 100 mm^3
  Tumor volumes, animal III: 2560.0 mm^3
  Tumor volumes, Average: 1330.0 mm^3

## CCCC(=O)N[C@H](CCCNC(=N)N)C(=O)N1CCC[C@H]1C(=O)N[C@@H](CCCCN)C(=O)N1CCC[C@H]1C(=O)N[C@H](Cc1ccccc1)C(=O)N[C@@H](CCC(N)=O)C(=O)N[C@H](Cc1c[nH]c2ccccc12)C(=O)N[C@@H](Cc1ccccc1)C(=O)N[C@H](Cc1c[nH]c2ccccc12)C(=O)N[C@@H](CC(C)C)C(=O)NC1(C(N)=O)CCCC1 [SEQ ID NO: 7, Butanoyl-D-Arg-Pro-Lys-Pro-D-Phe-Gln-D-Trp-Phe-D-Trp-Leu-Ac5c-NH2] (Butyryl-[dR]PKP[dF]Q[dW]F[dW]L[Ac5c]-NH2)
[5]
  Percentage cytotoxicity: Nil
[6]; 100 nM
  Percentage cytotoxicity: 9 ± 2.3%
[6]; 10 μM
  Percentage cytotoxicity: 15 ± 2.3%
[2]; 100 pM
  Percentage cytotoxicity: Nil
[2]; 1 nM
  Percentage cytotoxicity: Nil
[4]; Day 6
  Tumor volumes, animal I: 25.6 mm^3
  Tumor volumes, animal II: 66.6 mm^3
  Tumor volumes, animal III: 0 mm^3
  Tumor volumes, Average: 30.7 mm^3
[4]; Day 8
  Tumor volumes, animal I: 176.4 mm^3
  Tumor volumes, animal II: 260.1 mm^3
  Tumor volumes, animal III: 72 mm^3
  Tumor volumes, Average: 169.5 mm^3
[4]; Day 12
  Tumor volumes, animal I: 580.8 mm^3
  Tumor volumes, animal II: 1440 mm^3
  Tumor volumes, animal III: 281.6 mm^3
  Tumor volumes, Average: 767.4 mm^3
[4]; Day 15
  Tumor volumes, animal I: 946.4 mm^3
  Tumor volumes, animal II: 2427.6 mm^3
  Tumor volumes, animal III: 864 mm^3
  Tumor volumes, Average: 1412.6 mm^3
[4]; Day 19
  Tumor volumes, animal I: 1741 mm^3
  Tumor volumes, animal II: 2253 mm^3
  Tumor volumes, animal III: 1800 mm^3
  Tumor volumes, Average: 1931.3 mm^3
[4]; Day 22
  Tumor volumes, animal I: 2018 mm^3
  Tumor volumes, animal II: 3110 mm^3
  Tumor volumes, animal III: 0 mm^3
  Tumor volumes, Average: 1709.3 mm^3

## CCCCCCCC(=O)N[C@H](CCCNC(=N)N)C(=O)N1CCC[C@H]1C(=O)N[C@@H](CCCCN)C(=O)N1CCC[C@H]1C(=O)N[C@H](Cc1ccccc1)C(=O)N[C@@H](CCC(N)=O)C(=O)N[C@H](Cc1c[nH]c2ccccc12)C(=O)N[C@@H](Cc1ccccc1)C(=O)N[C@H](Cc1c[nH]c2ccccc12)C(=O)N[C@@H](CC(C)C)C(=O)NC1(C(N)=O)CCCC1 [SEQ ID NO: 8, Octanoyl-D-Arg-Pro-Lys-Pro-D-Phe-Gln-D-Trp-Phe-D-Trp-Leu-Ac5c-NH2] (Octanoyl-[dR]PKP[dF]Q[dW]F[dW]L[Ac5c]-NH2)
[4]; Day 6
  Tumor volumes, animal I: 532.4 mm^3
  Tumor volumes, animal II: 291.6 mm^3
  Tumor volumes, animal III: 0 mm^3
  Tumor volumes, Average: 274.6 mm^3
[4]; Day 8
  Tumor volumes, animal I: 1020.6 mm^3
  Tumor volumes, animal II: 691.2 mm^3
  Tumor volumes, animal III: 0 mm^3
  Tumor volumes, Average: 570.6 mm^3
[4]; Day 12
  Tumor volumes, animal I: 2080.8 mm^3
  Tumor volumes, animal II: 1440 mm^3
  Tumor volumes, animal III: 156.8 mm^3
  Tumor volumes, Average: 1225.8 mm^3
[4]; Day 15
  Tumor volumes, animal I: 3880.8 mm^3
  Tumor volumes, animal II: 2592 mm^3
  Tumor volumes, animal III: 580.8 mm^3
  Tumor volumes, Average: 2351.2 mm^3
[4]; Day 19
  Tumor volumes, animal I: 3520.0 mm^3
  Tumor volumes, animal II: 1474.8 mm^3
  Tumor volumes, animal III: 1710 mm^3
  Tumor volumes, Average: 2234.9 mm^3
[4]; Day 22
  Tumor volumes, animal I: 2312.0 mm^3
  Tumor volumes, animal II: 36 mm^3
  Tumor volumes, animal III: 3177 mm^3
  Tumor volumes, Average: 1841.6 mm^3

## D-MePhe-D-Trp-Phe-D-TrpLeu(psi)-(CH2NH)-Leu-NH2) [Analog 6]
[7]
  IC50: 2 µM

## D-MePhe-D-Trp-Phe-DTrp-Leu-MPA [Analog 7]
[7]
  IC50: 5 µM

## [Arg^6,D-Trp^7,9, MePhe^8] substance P(6-11) [antagonist G]
[8]; blocking bombesin/GRP mediated mitogenesis in Swiss 3T3 cells
  potency relative to antagonist D: ten fold less potent than antagonist D
[9]
  inhibition of SCLC xenografts in vivo: showed inhibition of SCLC xenografts in vivo

## [D-Arg^1, D-Phe^5, D-Trp^7,9, Leu^11] substance P [Antagonist D]
[10]
  IC50: 5 µM
[11]
  IC50: 5 µM
[8]; preventing cellular effects of bombesin/GRP and vasopressin in mouse 3T3 cells, also growth of SCLC cells in serumfree medium
  potency relative to antagonist A: five fold more potent than antagonist A

## pHOPA-D-Trp-Phe-D-Trp-Leu-Leu-NH2 (pHOPA-[dW]F[dW]LL-NH2; reading uncertain) [Analog R]
[12]
  inhibition of proliferation of H69 SCLC cells in vitro: inhibit the proliferation
[13]
  inhibition of proliferation of H69 SCLC cells in xenografts: inhibit the proliferation

Source: patent US6596692B1, “Substance P analogs for the treatment of cancer” (Dabur Research Foundation, priority 2000, dated 2003)
